Results published in US7091033B2, “Array of toxicologically relevant canine genes and uses thereof” (Phase-1 Molecular Toxicology, Inc., priority 2000, dated 2006).
Like-named read-outs stand apart in the source and are kept apart here.

What was measured:
Assay type in all cases: in vivo
[1] = test system: Glucose transporter; experiment: Canine array gene expression profile of kidney from dog dosed with erythromycin estolate; conditions: dog, kidney, 100 mg/kg
Procedure: (§1) For liver or kidney, about 0.15-0.20 g of tissue was weighed and placed in a 15 ml conical tube. All tissue were kept on dry ice when other samples were being weighed.
(§2) About 3.8 ml of RLT buffer was added to the tube containing the sample. The RLT buffer® from Qiagen can be prepared beforehand by adding 10 μl betamercaptoethanol to each 1.0 ml of lysis buffer needed. The tissue was homogenized using the rotor-stator homogenizer for 45 seconds. A IKA Ultra Turrax T25 homogenizer set at speed 4 with the S25N-10G dispersing element can be used. Alternatively, a Virtishear Cyclone 750W rotor/stator homogenizer (Virtis item #278077) can be used with the 7 mm microfine sawtooth shaft and generator (195 mm long with a processing range of 0.25 ml to 20 ml, item #372718). After homogenization, samples were stored on ice until all samples were homogenized. To clean the homogenizing tip between samples, the tip was first run for a few seconds in 95% ethanol and then rinsed by squirting with fresh 95% ethanol. This process was repeated with nanopure water.
(§3) The tissue lysate was centrifuged at room temperature for 10 minutes at 3700-3800 rpm in a Beckman GS-6 (or equivalent) centrifuge to remove nuclei thus reducing DNA contamination.
(§4) The supernatant of the lysate was transferred to a clean 15 ml conical tubes containing an equal volume of 70% EtOH in DEPC treated H2O, being careful not to include any of the pellet or fatty layer and mixed. About 3.8 ml of sample was added to the RNeasy spin column placed in a 15 ml centrifuge tube and centrifuged at 3000×g (3690-3710 rpm, Beckman GS-6) for 5 min. The flow-through was discarded. The remaining sample was added to the appropriate column and spun at 3000×g for 5 minutes and the flow-through was discarded.
(§5) About 4.0 ml of Buffer RW1 (Qiagen®) was added to the column and spun as before then about 2.5 ml of buffer RPE (Qiagen®) was added to column and spun at 3000×g (3690-3710 rpm, Beckman GS-6) for 2 minutes. In this example, RPE buffer was supplied as a concentrate so 4 volumes of 95% EtOH was added before use. For the midi kit, about 220 ml of 95% EtOH would be added to 55 ml of RPE. Another 2.5 ml of buffer RPE was added and spun for 5 minutes to also dry out column. The column, including the tip, should be dry for the next elution step.
(§6) For elution, the column that has the RNA bound to a clean 15 ml tube was transferred and 200 μl of RNase-free water was added to the column, allowed to sit for 1 minute, and spun for 3 minutes at 3000×g (3690-3710 rpm, Beckman GS6). This step was repeated into the same tube but with 200 μl RNase-free water.
(§7) Liver and kidney organs were isolated from a dog which was dosed with erythromycin esolate at 100 mg/kg/day for 2 or 10 days. The dog was euthanized 16 hours after the last dosage and the organs were harvested according to standard sterile procedure. RNA was isolated from the kidney and liver as detailed in Example 1. cDNA was made from the RNA and used as probes as detailed in the Examples above.

[2] = test system: Cytochrome P450 2C21; experiment: as above; conditions: dog, kidney, 100 mg/kg
Procedure: as §1, §2, §3, §4, §5, §6, §7

[3] = test system: Multidrug resistant protein-1; experiment: as above; conditions: dog, kidney, 100 mg/kg
Procedure: as §1, §2, §3, §4, §5, §6, §7

[4] = test system: Cytochrome P450 2C41; experiment: as above; conditions: dog, kidney, 100 mg/kg
Procedure: as §1, §2, §3, §4, §5, §6, §7

[5] = test system: canine kidney gene expression; experiment: as above; conditions: Canis lupus familiaris, 240 h, 10 days
Procedure: as §1, §2, §3, §4, §5, §6, §7

[6] = test system: Cytochrome P450 2D (gene expression); experiment: Canine array gene expression profile of liver from dog dosed with erythromycin estolate; conditions: dog, liver, 100 mg/kg
Procedure: as §1, §2, §3, §4, §5, §6, §7

[7] = test system: Cytochrome P450 2B (gene expression); experiment: as above; conditions: dog, liver, 100 mg/kg
Procedure: as §1, §2, §3, §4, §5, §6, §7

[8] = test system: canine liver gene expression; experiment: as above; conditions: Canis lupus familiaris, 240 h, 10 days
Procedure: as §1, §2, §3, §4, §5, §6, §7

[9] = test system: Cytochrome P450 2C21 (gene expression); experiment: as above; conditions: dog, liver, 100 mg/kg
Procedure: as §1, §2, §3, §4, §5, §6, §7

[10] = read-out: Alkaline phosphatase fold induction
[11] = read-out: Angiopoietin-related protein 3 (ANGPTL3) fold induction
[12] = read-out: Beta-glucuronidase fold induction
[13] = read-out: Catalase fold induction
[14] = read-out: Caveolin-2 fold induction
[15] = read-out: Cubilin fold induction
[16] = read-out: Cytochrome c oxidase subunit VIIaL fold induction
[17] = read-out: c-erb B-2 fold induction

fold induction at 10 days [1]: 1.1 | fold induction at 10 days [2]: 1.1 | fold induction at 10 days [3]: 1.2 | fold induction at 10 days [4]: 1.2 | fold induction at 10 days [6]: 1.1 | fold induction at 10 days [7]: 1.9 | fold induction at 10 days [9]: 1.3
SMILES: CCC(=O)O[C@H]1[C@H](O[C@@H]2[C@@H](C)[C@H](O[C@H]3C[C@@](C)(OC)[C@@H](O)[C@H](C)O3)[C@@H](C)C(=O)O[C@H](CC)[C@@](C)(O)[C@H](O)[C@@H](C)C(=O)[C@H](C)C[C@@]2(C)O)O[C@H](C)C[C@@H]1N(C)C [erythromycin estolate]
fold induction at 100 mg/kg [5, 10]: 1.6 | fold induction at 100 mg/kg [5, 11]: 1 | fold induction at 100 mg/kg ([5]; read-out: BRCA1 fold induction): 1.2 | fold induction at 100 mg/kg [5, 12]: 1.1 | fold induction at 100 mg/kg [5, 13]: 1.2 | fold induction at 100 mg/kg ([5]; read-out: Caveolin-1 fold induction): 1 | fold induction at 100 mg/kg [5, 14]: 1.6 | fold induction at 100 mg/kg [5, 15]: 1.1 | fold induction at 100 mg/kg [5, 16]: 1 | fold induction at 100 mg/kg ([5]; read-out: Decorin fold induction): 1.1 | fold induction at 100 mg/kg ([5]; read-out: FGFR2 fold induction): 1.1 | fold induction at 100 mg/kg ([5]; read-out: GRP94 fold induction): 1.1 | fold induction at 100 mg/kg ([5]; read-out: Gadd45 fold induction): 1 | fold induction at 100 mg/kg ([5]; read-out: Glucose-regulated protein 94 #1 fold induction): 1.4 | fold induction at 100 mg/kg ([5]; read-out: N-cadherin fold induction): 1.1 | fold induction at 100 mg/kg ([5]; read-out: Phase-1 CCT-4 fold induction): 1.1 | fold induction at 100 mg/kg ([5]; read-out: Phase-1 CCT-8 fold induction): 1.1 | fold induction at 100 mg/kg ([5]; read-out: Phase-1 CCT-12 fold induction): 1.1 | fold induction at 100 mg/kg ([5]; read-out: Phase-1 CCT-13 fold induction): 1 | fold induction at 100 mg/kg ([5]; read-out: Phase-1 CCT-14 fold induction): 1 | fold induction at 100 mg/kg ([5]; read-out: Phase-1 CCT-16 fold induction): 1 | fold induction at 100 mg/kg ([5]; read-out: Phase-1 CCT-17 fold induction): 1 | fold induction at 100 mg/kg ([5]; read-out: Phase-1 CCT-18 fold induction): 1.2 | fold induction at 100 mg/kg ([5]; read-out: Phase-1 CCT-19 fold induction): 1.2 | fold induction at 100 mg/kg ([5]; read-out: Phase-1 CCT-27 fold induction): 1.4 | fold induction at 100 mg/kg ([5]; read-out: Phase-1 CCT-30 fold induction): 1.3 | fold induction at 100 mg/kg ([5]; read-out: Phase-1 CCT-31 fold induction): 1.1 | fold induction at 100 mg/kg ([5]; read-out: Phase-1 CCT-32 fold induction): 1.1 | fold induction at 100 mg/kg ([5]; read-out: Phase-1 CCT-33 fold induction): 1.1 | fold induction at 100 mg/kg ([5]; read-out: Phase-1 CCT-34 fold induction): 1.1 | fold induction at 100 mg/kg ([5]; read-out: Phase-1 CCT-36 fold induction): 1 | fold induction at 100 mg/kg ([5]; read-out: Phase-1 CCT-40 fold induction): 1.2 | fold induction at 100 mg/kg ([5]; read-out: Phase-1 CCT-41 fold induction): 1.2 | fold induction at 100 mg/kg ([5]; read-out: Phase-1 CCT-42 fold induction): 1.1 | fold induction at 100 mg/kg ([5]; read-out: Phase-1 CCT-43 fold induction): 1.2 | fold induction at 100 mg/kg ([5]; read-out: Phase-1 CCT-49 fold induction): 1 | fold induction at 100 mg/kg ([5]; read-out: Phase-1 CCT-50 fold induction): 1.1 | fold induction at 100 mg/kg ([5]; read-out: Phase-1 CCT-51 fold induction): 1.2 | fold induction at 100 mg/kg ([5]; read-out: Phase-1 CCT-52 fold induction): 1.1 | fold induction at 100 mg/kg ([5]; read-out: Phase-1 CCT-53 fold induction): 1 | fold induction at 100 mg/kg ([5]; read-out: Phase-1 CCT-55 fold induction): 1.1 | fold induction at 100 mg/kg ([5]; read-out: Phase-1 CCT-56 fold induction): 1.1 | fold induction at 100 mg/kg ([5]; read-out: Phase-1 CCT-58 fold induction): 1.5 | fold induction at 100 mg/kg ([5]; read-out: Phase-1 CCT-59 fold induction): 1 | fold induction at 100 mg/kg ([5]; read-out: Phase-1 CCT-60 fold induction): 1.1 | fold induction at 100 mg/kg ([5]; read-out: Phase-1 CCT-62 fold induction): 1.1 | fold induction at 100 mg/kg ([5]; read-out: Phase-1 CCT-65 fold induction): 1.1 | fold induction at 100 mg/kg ([5]; read-out: Phase-1 CCT-66 fold induction): 1.1 | fold induction at 100 mg/kg ([5]; read-out: Phase-1 CCT-73 fold induction): 1.1 | fold induction at 100 mg/kg ([5]; read-out: Phase-1 CCT-76 fold induction): 1 | fold induction at 100 mg/kg ([5]; read-out: Phase-1 CCT-82 fold induction): 1 | fold induction at 100 mg/kg ([5]; read-out: Phase-1 CCT-84 fold induction): 1.1 | fold induction at 100 mg/kg ([5]; read-out: Phase-1 CCT-87 fold induction): 1.2 | fold induction at 100 mg/kg ([5]; read-out: Phase-1 CCT-88 fold induction): 1.2 | fold induction at 100 mg/kg ([5]; read-out: Phase-1 CCT-89 fold induction): 1.1 | fold induction at 100 mg/kg ([5]; read-out: Phase-1 CCT-91 fold induction): 1.1 | fold induction at 100 mg/kg ([5]; read-out: Phase-1 CCT-93 fold induction): 1 | fold induction at 100 mg/kg ([5]; read-out: Proliferating cell nuclear antigen gene fold induction): 1.1 | fold induction at 100 mg/kg ([5]; read-out: Prostaglandin D synthase fold induction): 1.2 | fold induction at 100 mg/kg ([5]; read-out: Rab2 fold induction): 1.2 | fold induction at 100 mg/kg ([5]; read-out: Rab5 fold induction): 1.1 | fold induction at 100 mg/kg ([5]; read-out: Rab7 fold induction): 1.4 | fold induction at 100 mg/kg ([5]; read-out: Superoxide dismutase Mn fold induction): 1.1 | fold induction at 100 mg/kg ([5]; read-out: TFCOUP-related (probable steroid hormone receptor) fold induction): 1.1 | fold induction at 100 mg/kg ([5]; read-out: TPRD fold induction): 1.1 | fold induction at 100 mg/kg ([5]; read-out: UV excision repair protein RAD 23 (XP-C) fold induction): 1.2 | fold induction at 100 mg/kg [5, 17]: 1.4 | fold induction at 100 mg/kg ([5]; read-out: p53 fold induction): 1.4 | fold induction at 100 mg/kg ([5]; iv, read-out: ZAP36/annexin IV fold induction): 1.6 | fold induction at 100 mg/kg [8, 10]: 1.5 | fold induction at 100 mg/kg [8, 11]: 1.5 | fold induction at 100 mg/kg ([8]; read-out: BR-cadherin fold induction): 1.2 | fold induction at 100 mg/kg ([8]; read-out: BRCA1 fold induction): 1.5 | fold induction at 100 mg/kg [8, 12]: 1.5 | fold induction at 100 mg/kg ([8]; read-out: Canis familiaris mitochondrion, complete genome fold induction): 1.1 | fold induction at 100 mg/kg [8, 13]: 1.4 | fold induction at 100 mg/kg [8, 14]: 1.2 | fold induction at 100 mg/kg [8, 15]: 1.1 | fold induction at 100 mg/kg ([8]; read-out: Cytochrome c oxidase subunit II fold induction): 1.6 | fold induction at 100 mg/kg [8, 16]: 1 | fold induction at 100 mg/kg [8, 17]: 1.3
